The target in assay [1] is T1, Dihydrofolate reductase (Bos taurus, UniProt P00376).
T1 sequence (P00376 whole entry): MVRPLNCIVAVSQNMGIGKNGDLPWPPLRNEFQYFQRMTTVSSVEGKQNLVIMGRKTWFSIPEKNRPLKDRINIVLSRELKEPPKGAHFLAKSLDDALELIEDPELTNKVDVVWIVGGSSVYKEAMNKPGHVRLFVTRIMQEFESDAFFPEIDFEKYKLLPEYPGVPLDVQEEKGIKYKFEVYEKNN
Nature of the assay: Inhibition of bovine liver DHFR.

Assay [2] has as its system Staphylococcus aureus. Nature of the assay: Antimicrobial activity against Staphylococcus aureus assessed as inhibition zone at 200 ug/disk after 24 hrs by disc-diffusion method. The note with it: read-out: IZ. The class given is functional.
For assay [3], the system named is Bacillus subtilis. Nature of the assay: Antimicrobial activity against Bacillus subtilis assessed as inhibition zone at 200 ug/disk after 24 hrs by disc-diffusion method. It is filed as functional. The settings on record: read-out: IZ.
In assay [4] the test system is Escherichia coli. Nature of the assay: Antimicrobial activity against Escherichia coli assessed as inhibition zone at 200 ug/disk after 24 hrs by disc-diffusion method. It is filed as functional. The settings on record: read-out: IZ.
Assay [5] has as its system Pseudomonas aeruginosa. Nature of the assay: Antimicrobial activity against Pseudomonas aeruginosa assessed as inhibition zone at 200 ug/disk after 24 hrs by disc-diffusion method. The class given is functional. The note with it: read-out: IZ.
Assay [6] has as its system Candida albicans. Nature of the assay: Antimicrobial activity against Candida albicans assessed as inhibition zone at 200 ug/disk after 24 hrs by disc-diffusion method. The class given is functional. The note with it: read-out: IZ.
A short description of assay [7]: Growth inhibition of human HOP92 cells at 10 uM after 48 hrs. The note with it: HOP-92, 48 h, read-out: GI. The class given is functional.
Assay [8] can be described thus: Growth inhibition of human SF295 cells at 10 uM after 48 hrs. It is filed as functional. The note with it: SF-295, 48 h, read-out: GI.
Assay [9] can be described thus: Growth inhibition of human UO31 cells at 10 uM after 48 hrs. The class given is functional. The note with it: UO-31, 48 h, read-out: GI.
Assay [10] is described as follows: Growth inhibition of human PC3 cells at 10 uM after 48 hrs. The settings on record: PC-3, 48 h, read-out: GI. The class given is functional.
The subject of assay [11] is MDA-MB-468. Nature of the assay: Growth inhibition of human MDA-MB-468 cells at 10 uM after 48 hrs. It is filed as functional. The note with it: MDA-MB-468, 48 h, read-out: GI.
For assay [12], the system named is MCF7. In words: Growth inhibition of human MCF7 cells at 10 uM after 48 hrs. The settings on record: MCF7, 48 h, read-out: GI. The class given is functional.
The test system of assay [13] is T47D. Nature of the assay: Growth inhibition of human T47D cells at 10 uM after 48 hrs. The note with it: read-out: GI. It is filed as functional.
Assay [14] concerns HL-60(TB). Nature of the assay: Growth inhibition of human HL-60(TB) cells at 10 uM after 48 hrs. It is filed as functional. The note with it: HL-60, 48 h, read-out: GI.
For assay [15], the system named is SR. In words: Growth inhibition of human SR cells at 10 uM after 48 hrs. It is filed as functional. The note with it: read-out: GI.
Assay [16] has as its system NCI-H522. In words: Growth inhibition of human NCI-H522 cells at 10 uM after 48 hrs. It is filed as functional. The settings on record: NCI-H522, 48 h, read-out: GI.

Take `COc1cc2nc(Sc3nnc(N)s3)n(-c3ccccc3)c(=O)c2cc1OC`: the IC50 in [1] turned out to be 10 µM. Also, the zone of inhibition at 200 µg/disc in [2], in [3], in assay [4], in assay [5] and in assay [6] was 8 mm throughout. The inhibition of growth at 10 µM was 15.4% in [7]; 10.6% in assay [8]; 14.2% in [9]; 10.9% in assay [10]; 10.4% in assay [11].
On to `COc1ccc(-n2c(Sc3nnc(N)s3)nc3cc(OC)c(OC)cc3c2=O)cc1`, for which the IC50 in assay [1] amounted to 7 µM. The zone of inhibition at 200 µg/disc in assay [2], in assay [3], in assay [4], in assay [5] and in assay [6] was 8 mm each time. The inhibition of growth at 10 µM in assay [7] is 33.7%.
Regarding `Cc1nc(N)sc1Sc1nc2ccc(Cl)cc2c(=O)n1-c1ccccc1`, the IC50 in assay [1] worked out at 5 µM. Further, the zone of inhibition at 200 µg/disc in assay [2], in assay [3], in assay [4], in assay [5] and in [6] was 8 mm throughout. The inhibition of growth at 10 µM in assay [9] was 32.6%; in assay [12], 18%; in [13], 14.3%.
For `Nc1nnc(Sc2nc3ccc(Cl)cc3c(=O)n2-c2ccc(Oc3ccccc3)cc2)s1`, the IC50 in [1] stood at 0.4 µM. Further, the zone of inhibition at 200 µg/disc in assay [2], in assay [3], in [4], in [5] and in [6] was 8 mm each time. Moreover, the inhibition of growth at 10 µM in assay [14] is 12%; in assay [9], 17%.
With `COc1cc2nc(Sc3sc(N)nc3C)n(-c3ccccc3)c(=O)c2cc1OC`, in assay [1], the IC50 worked out at 7 µM. For the same molecule, the zone of inhibition at 200 µg/disc in assay [2], in assay [3], in [4], in assay [5] and in [6] was 8 mm throughout. In addition, the inhibition of growth at 10 µM in assay [15] is 15%; in [16], 25.6%; in assay [9], 32.3%; in [12] it was 21.7%.

For the origin of these results see ChEMBL document CHEMBL3352542, “Synthesis, biological evaluation and molecular modeling study of 2-(1,3,4-thiadiazolyl-thio and 4-methyl-thiazolyl-thio)-quinazolin-4-ones as a new class of DHFR inhibitors” (Bioorg Med Chem Lett, 2014).
